These results are taken from publication PMC12340957, “Interactions between Lipopolysaccharide and Peptide Bacteriocin BacSp222 Influence Their Biological Activities” (ACS Infectious Diseases, 2025).

Ends that are not written are not given here. * marks the point of attachment. For = O=C*

The conditions of series [1]: literature statement; ref number not given; cited from earlier work. The source says: Regarding factors produced by bacteria, the canonical example of molecules interacting with LPS are polymyxins. […] Polymyxins are effective antibacterial drugs that interact with LPS in the outer and inner membranes of the cell wall, ultimately causing a lethal effect. […] Colicins, a family of protein bacteriocins produced by , typically must cross the bacterial outer membrane to display bactericidal activity. Most colicins use porins and high-affinity receptors to cross the outer membrane and kill the target. However, for colicin N, there is no such high-affinity receptor, and this bacteriocin targets LPS instead. The receptor-binding domain of ColN binds to LPS near the membrane surface, and this interaction is required for its bactericidal activity. || Nisin, a peptide lantibiotic produced by , is another example of a bacteriocin that could utilize LPS as a receptor. […] The interaction described above leads to membrane disruption. The level of membrane disruption is related to the origin of the bacteria and the type of LPS as its rough type is more susceptible to nisin.

Another series deals with TLR4. The note with it: literature statement; ref number not given; cited from earlier work. The source says:
Proteins and peptides capable of recognizing and binding LPS as well as altering its biological activity are present in both higher organisms and bacteria. In higher organisms, these polypeptides are most often involved in the immune response. One of the best-known examples is LPS-binding protein (LBP). It is an acute-phase plasma protein of mammals that forms a complex with LPS, and this complex then binds to CD14 (cluster of differentiation 14). This event initiates a signaling pathway through TLR4/MD-2 and triggers the activation of immune response. , In the absence of TLR4, MD-2 can also i ... || Regarding factors produced by bacteria, the canonical example of molecules interacting with LPS are polymyxins. […] Polymyxins are effective antibacterial drugs that interact with LPS in the outer and inner membranes of the cell wall, ultimately causing a lethal effect.

Series [2] concerns the molecule itself. The series can be described thus: dynamic light scattering; BacSp222 alone at 5, 50 and 500 μg/mL in PBS without Ca2+ and Mg2+, incubated 15 min at 37 °C, measured at 37 °C (Prometheus Panta); performed once.

As to Nisin, the “interaction with LPS” value in series [1] is “forms a molecular complex in model membranes and bacterial outer membrane extracts”.
With polymyxins [reference compound], the “interaction with LPS” value in series [1] is “high affinity to LPS”. Moreover, in the series with TLR4, the “inhibition of LPS-induced TLR4 activation” value is “effectively block the biological effects of LPS, including TLR4 activation”.

B1: colicin N: protein bacteriocin whose receptor-binding domain binds to LPS (protein, UniProt P08083 1-387, looked up)
Colicin-N: MGSNGADNAHNNAFGGGKNPGIGNTSGAGSNGSASSNRGNSNGWSWSNKPHKNDGFHSDGSYHITFHGDNNSKPKPGGNSGNRGNNGDGASAKVGEITITPDNSKPGRYISSNPEYSLLAKLIDAESIKGTEVYTFHTRKGQYVKVTVPDSNIDKMRVDYVNWKGPKYNNKLVKRFVSQFLLFRKEEKEKNEKEALLKASELVSGMGDKLGEYLGVKYKNVAKEVANDIKNFHGRNIRSYNEAMASLNKVLANPKMKVNKSDKDAIVNAWKQVNAKDMANKIGNLGKAFKVADLAIKVEKIREKSIEGYNTGNWGPLLLEVESWIIGGVVAGVAISLFGAVLSFLPISGLAVTALGVIGIMTISYLSSFIDANRVSNINNIISSVIR
B1: the “interaction with LPS” value in series [1] is recorded as “targets LPS”.

B2: BacSp222 bacteriocin (peptide)
chain: For-MAGLLRFLLSKGRALYNWAKSHVGKVWEWLKSGATYEQIKEWIENALGWR
notes: molecular mass 5.922 kDa; also called peptide BacSp222
Regarding B2, in series [2], the binding result is listed as “binds”.
